In publication PMC11378702 (RSC Advances, 2024):
Like-named read-outs stand apart in the source and are kept apart here.

Assays:
A549 = assay: cells; format: cell-based; conditions: Homo sapiens, A549, 48 h, read-out: IC50 (μM) A549
H1975 = assay: MTT anti-proliferative assay, H1975 cells; format: cell-based; conditions: Homo sapiens, NCI-H1975, 48 h, read-out: IC50 (μM) H1975
EGFR^WT = EGFR^WT (Homo sapiens, UniProt P00533); assay: biochemical
EGFR^T790M = EGFR^T790M (Homo sapiens, UniProt P00533, T790M); assay: biochemical; format: biochemical
EGFR^T790M, sequence (P00533 25-1210 T790M): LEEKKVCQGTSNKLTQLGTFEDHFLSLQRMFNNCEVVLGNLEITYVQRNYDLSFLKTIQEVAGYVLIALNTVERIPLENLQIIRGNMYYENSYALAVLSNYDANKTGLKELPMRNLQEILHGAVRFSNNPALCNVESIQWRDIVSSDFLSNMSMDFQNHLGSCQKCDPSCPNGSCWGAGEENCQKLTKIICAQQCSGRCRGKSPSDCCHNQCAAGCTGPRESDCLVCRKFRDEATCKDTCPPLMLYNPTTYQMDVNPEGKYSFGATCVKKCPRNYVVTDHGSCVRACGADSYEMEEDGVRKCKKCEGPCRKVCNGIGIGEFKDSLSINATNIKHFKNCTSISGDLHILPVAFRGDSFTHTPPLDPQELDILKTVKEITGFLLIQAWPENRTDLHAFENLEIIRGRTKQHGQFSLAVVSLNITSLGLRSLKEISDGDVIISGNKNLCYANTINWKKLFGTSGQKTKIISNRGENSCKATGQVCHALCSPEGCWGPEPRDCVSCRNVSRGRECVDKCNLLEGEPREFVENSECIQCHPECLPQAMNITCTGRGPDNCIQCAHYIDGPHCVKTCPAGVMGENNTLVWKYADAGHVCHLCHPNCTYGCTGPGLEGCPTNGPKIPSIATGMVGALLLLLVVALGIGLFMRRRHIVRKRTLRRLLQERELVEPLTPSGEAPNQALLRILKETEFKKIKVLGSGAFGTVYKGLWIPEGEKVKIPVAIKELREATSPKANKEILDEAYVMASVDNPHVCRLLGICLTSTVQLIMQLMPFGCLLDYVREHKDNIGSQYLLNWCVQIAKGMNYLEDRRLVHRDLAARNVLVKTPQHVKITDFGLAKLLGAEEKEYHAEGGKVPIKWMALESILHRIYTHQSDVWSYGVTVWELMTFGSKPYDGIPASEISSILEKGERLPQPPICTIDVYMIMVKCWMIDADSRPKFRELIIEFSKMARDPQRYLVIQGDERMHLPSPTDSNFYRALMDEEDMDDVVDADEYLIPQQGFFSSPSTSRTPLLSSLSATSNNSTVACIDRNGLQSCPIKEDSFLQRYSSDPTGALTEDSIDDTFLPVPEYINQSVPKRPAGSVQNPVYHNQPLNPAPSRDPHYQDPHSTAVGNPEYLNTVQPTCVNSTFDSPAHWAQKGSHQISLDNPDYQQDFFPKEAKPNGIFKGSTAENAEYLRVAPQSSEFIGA

A431 = assay: MTT anti-proliferative assay, A431 cells; format: cell-based, human; conditions: read-out: IC50 (μM) A431

EGFR^WT, sequence (P00533 25-1210): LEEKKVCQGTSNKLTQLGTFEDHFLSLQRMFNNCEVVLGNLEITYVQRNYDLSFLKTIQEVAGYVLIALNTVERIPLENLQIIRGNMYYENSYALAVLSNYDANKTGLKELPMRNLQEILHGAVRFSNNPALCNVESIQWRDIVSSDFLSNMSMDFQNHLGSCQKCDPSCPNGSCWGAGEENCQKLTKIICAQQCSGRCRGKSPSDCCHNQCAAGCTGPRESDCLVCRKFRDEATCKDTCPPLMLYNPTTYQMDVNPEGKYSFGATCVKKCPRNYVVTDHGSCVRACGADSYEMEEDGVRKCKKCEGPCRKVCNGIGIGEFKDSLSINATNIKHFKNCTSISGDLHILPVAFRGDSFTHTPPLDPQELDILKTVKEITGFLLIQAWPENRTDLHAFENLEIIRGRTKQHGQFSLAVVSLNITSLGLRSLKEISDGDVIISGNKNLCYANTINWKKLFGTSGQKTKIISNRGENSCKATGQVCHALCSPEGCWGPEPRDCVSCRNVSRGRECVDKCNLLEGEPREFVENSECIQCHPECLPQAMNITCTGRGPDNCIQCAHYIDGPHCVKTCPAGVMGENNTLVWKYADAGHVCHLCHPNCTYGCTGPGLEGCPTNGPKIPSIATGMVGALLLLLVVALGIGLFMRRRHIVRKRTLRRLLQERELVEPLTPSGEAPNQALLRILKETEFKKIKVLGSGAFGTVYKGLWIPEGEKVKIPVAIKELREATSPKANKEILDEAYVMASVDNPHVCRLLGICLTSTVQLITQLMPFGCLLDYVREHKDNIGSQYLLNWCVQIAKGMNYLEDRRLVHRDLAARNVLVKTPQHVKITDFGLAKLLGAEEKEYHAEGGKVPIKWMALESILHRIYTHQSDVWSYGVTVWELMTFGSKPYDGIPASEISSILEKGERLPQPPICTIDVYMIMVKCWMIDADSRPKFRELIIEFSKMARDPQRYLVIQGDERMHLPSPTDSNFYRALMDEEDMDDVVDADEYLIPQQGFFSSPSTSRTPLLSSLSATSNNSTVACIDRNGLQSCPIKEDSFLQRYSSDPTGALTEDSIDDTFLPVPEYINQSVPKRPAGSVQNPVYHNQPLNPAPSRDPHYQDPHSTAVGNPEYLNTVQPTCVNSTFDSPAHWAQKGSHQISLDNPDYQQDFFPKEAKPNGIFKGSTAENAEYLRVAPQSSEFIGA

Compound | IC50 (A549) [µM] | IC50 (H1975) [µM] | IC50 (EGFR^WT) [µM] | IC50 (EGFR^T790M) [µM] | IC50 (A431; MTT, two-day incubation, mean ± SD, n = 3) [µM] | fold more potent than gefitinib (EGFR^T790M IC50) (EGFR^T790M; relative to gefitinib) [fold] | IC50 (A431; Homo sapiens, A-431, 48 h) [µM]
CCOC(=O)/C(C#N)=N\Nc1ccc(S(=O)(=O)Nc2ncccn2)cc1 [Compound 9, Ethyl (Z)-2-cyano-2-(2-(4-(N-(pyrimidin-2-yl)sulfamoyl)phenyl)hydrazineylidene)acetate] | 15 ± 1.27 | 13.1 ± 0.67 | 0.0435 ± 0.0002 | 0.0171 ± 0.0001 | – | – | –
CSc1nc(NC(=O)C(=NNc2ccc(S(=O)(=O)Nc3ncccn3)cc2)C(C)=O)cc(N)c1C#N [Compound 14, N-(4-Amino-5-cyano-6-(methylthio)pyridin-2-yl)-3-oxo-2-{[4-(pyrimidin-2-ylsulfamoyl)phenyl]hydrazono}butanamide] | 7.56 ± 0.27 | 4.59 ± 0.43 | 0.0153 ± 0.0031 | 0.0243 ± 0.0034 | – | – | –
CC(=O)C(=NNc1ccc(S(=O)(=O)Nc2ncccn2)cc1)C(=O)c1ccccc1 [Compound 8, 4-[2-(1-Benzoyl-2-oxopropylidene)hydrazino]-N-pyrimidin-2-ylbenzenesulfonamide] | 4.78 ± 0.12 | 2.31 ± 0.23 | 0.0232 ± 0.0001 | 0.0096 ± 0.0032 | 4.12 ± 0.54 | 38 | –
CCC(=O)C(=NNc1ccc(S(=O)(=O)Nc2ncccn2)cc1)C(C)=O [Compound 5, 4-(2-(2,4-Dioxohexan-3-ylidene)hydrazineyl)-N-(pyrimidin-2-yl)benzenesulfonamide] | 19.2 ± 3.09 | 20.1 ± 2.21 | 0.0492 ± 0.0067 | 0.0936 ± 0.0085 | – | – | –
CC(=O)C(=NNc1ccc(S(=O)(=O)Nc2ncccn2)cc1)C(C)=O [Compound 6, 4-(2-(2,4-Dioxopentan-3-ylidene)hydrazineyl)-N-(pyrimidin-2-yl)benzenesulfonamide] | 16.6 ± 0.92 | 15.7 ± 0.21 | 0.0526 ± 0.0093 | 0.0668 ± 0.0104 | – | – | –
N#CC(=NNc1ccc(S(=O)(=O)Nc2ncccn2)cc1)C(N)=S [Compound 10, 2-Cyano-(2-(4-(N-(pyrimidin-2-yl)sulfamoyl)phenyl)hydrazono)ethanethioamide] | 19.7 ± 0.34 | 15.8 ± 2.48 | 0.0315 ± 0.0058 | 0.0608 ± 0.0062 | – | – | –
C#Cc1cccc(Nc2ncnc3cc(OCCOC)c(OCCOC)cc23)c1 [Erlotinib, reference compound] | 17.5 ± 2.34 | 12.9 ± 1.23 | – | – | – | – | –
C=CC(=O)Nc1cc(Nc2nccc(-c3cn(C)c4ccccc34)n2)c(OC)cc1N(C)CCN(C)C [Osimertinib, reference compound] | – | 0.93 ± 0.09 | – | – | – | – | –
CCOC(=O)C(=NNc1ccc(S(=O)(=O)Nc2ncccn2)cc1)C(=O)OCC [Compound 12, Diethyl 2-(2-(4-(N-(pyrimidin-2-yl)sulfamoyl)phenyl)hydrazineylidene)malonate] | 5.15 ± 0.3 | 6.12 ± 0.24 | 0.0145 ± 0.0075 | 0.0354 ± 0.0086 | – | – | –
CSC1=NC(=N)C(=NNc2ccc(S(=O)(=O)Nc3ncccn3)cc2)C(N)=C1C#N [Compound 13, 4-{-2-[4-Amino-5-cyano-2-imino-6-(methylthio)pyridin-3(2H)-ylidene]hydrazino}-N-pyrimidin-2-ylbenzenesulfonamide] | 15.5 ± 1.34 | 17.1 ± 1.62 | 0.0417 ± 0.0082 | 0.215 ± 0.0152 | – | – | –
N#CC(=NNc1ccc(S(=O)(=O)Nc2ncccn2)cc1)C(N)=C(C#N)C#N [Compound 11, 2-Amino-3,3-dicyano-N-(4-(N-(pyrimidin-2-yl)sulfamoyl)phenyl)acrylohydrazonoyl cyanide] | 13.6 ± 1.32 | 14.1 ± 1.23 | 0.0477 ± 0.0114 | 0.133 ± 0.0162 | – | – | 15.1 ± 0.58
